Assay results from patent US8188059B2, “Compounds and methods for modulating expression of GCGR” (Isis Pharmaceuticals, Inc., priority 2006, dated 2012).
Strand notation (5' to 3'): a small letter for the sugar, then the base; units joined by * are phosphorothioate-linked, units joined directly phosphodiester-linked; [ ] holds rarer units or linkages, { } end groups; capitals alone tell only the bases. e = 2'-O-(2-methoxyethyl) (MOE); [5mC] = 5-methylcytosine; d = 2'-deoxy (DNA)

System: SGLT2 mRNA
Experiment: SGLT2 mRNA levels in kidney of Balb/c mice, twenty 1-10-1 MOE gapmers at 350 nmol/kg, PPS 534 and PPS 553 (Example 18, Table 74)
Format: in vivo, mouse
Details: 350 nmol/kg i.p. twice per week for two weeks
Experimental: Twenty 1-10-1 MOE gapmers that are complementary to human/monkey/mouse/rat SGLT2 were designed, synthesized and tested in vivo for suppression of SGLT2 mRNA levels in kidney. Data are averages from two experiments in which male 6-week old Balb/c mice were administered intraperitoneal injections of 350 nmol/kg of oligonucleotide, twice per week, over a period of two weeks (a total of four injections). Mice were sacrificed 48 hours following the last administration and evaluated for SGLT2 mRNA levels in kidney. SGLT2 mRNA levels were determined by quantitative real-time PCR analysis according to standard procedures, using two different PCR primer probe sets, primer probe set (PPS) 534 and PPS 553. SGLT2 mRNA levels were normalized to cyclophilin mRNA levels, which were also measured by quantitative real-time PCR.

| Substance | SGLT2 mRNA in kidney, % change relative to saline (primer probe set 534) [%] | SGLT2 mRNA in kidney, % change relative to saline (primer probe set 553) [%] |
| --- | --- | --- |
| 379703 (antisense eG*d[5mC]*d[5mC]*dG*dG*dA*dG*dA*d[5mC]*dT*dG*eA) [compound 379703] | −44.2 | −45.9 |
| 379699 (antisense eG*dG*d[5mC]*dA*dT*dG*dA*dG*d[5mC]*dT*dT*e[5mC]) [compound 379699] | −83.5 | −85.8 |
| 379691 (antisense eA*dG*dA*dT*d[5mC]*dT*dT*dG*dG*dT*dG*eA) [compound 379691] | −35.0 | −48.6 |
| 370717 (antisense eT*dA*dG*d[5mC]*d[5mC]*dA*d[5mC]*d[5mC]*dA*dA*d[5mC]*eT) [compound 370717] | −84.4 | −84.3 |
| 379701 (antisense e[5mC]*d[5mC]*dA*dT*dG*dG*dT*dG*dA*dA*dG*eA) [compound 379701] | −0.3 | −11.9 |
| 379688 (antisense e[5mC]*d[5mC]*dA*dA*dG*d[5mC]*d[5mC]*dA*d[5mC]*dT*dT*eG) [compound 379688] | −62.6 | −70.4 |
| 379686 (antisense eA*d[5mC]*d[5mC]*dA*d[5mC]*dA*dA*dG*d[5mC]*d[5mC]*dA*eA) [compound 379686] | −71.9 | −75.1 |
| 379693 (antisense e[5mC]*dA*dT*dG*dG*dT*dG*dA*dT*dG*d[5mC]*e[5mC]) [compound 379693] | −51.6 | −59.9 |
| 379690 (antisense eA*d[5mC]*dA*dG*dG*dT*dA*dG*dA*dG*dG*e[5mC]) [compound 379690] | −18.9 | −22.5 |
| 379685 (antisense eT*dG*dA*d[5mC]*d[5mC]*dA*dG*d[5mC]*dA*dG*dG*eA) [compound 379685] | −10.3 | −20.5 |
| 379696 (antisense e[5mC]*dA*dG*d[5mC]*dT*dT*d[5mC]*dA*dG*dG*dT*eA) [compound 379696] | −24.6 | −36.2 |
